# Source: patent publication US7238377B2, “Use of an oil of the gourd family for inhibiting 5 alpha-reductase activity” (Laboratoires Expanscience, priority 2001, dated 2007)
# “And” between values parts separate entries of the source, which are not always exact repeats. Identical values can stand only once. Marks after values point to notes of the source that are not given here.
# Tested on: 5α-reductase
# Assay: In vitro evaluation of 5α-reductase activity: conversion of testosterone to 5α-dihydrotestosterone in normal human dermal fibroblast cultures
# Type: cell-based
# Conditions: finasteride 30 ng/ml
# Description: In vitro evaluation of the 5α-reductase activity of the balsam pear oil on the conversion of testosterone to 5α-dihydrotestosterone in normal human dermal fibroblast cultures
# It is proposed to evaluate the effect of the solid oil (butter) extracted from seeds of balsam pear (Momordica charantia), extracted with solvent (hexane), on 5α-reductase activity. An in vitro model of normal human dermal fibroblast cultures was selected.
# The balsam pear oil was provided by the Laboratoires Pharmascience and was stored at +4° C. until the time it was used. The effects of the test product were compared with those obtained in the presence of finasteride, used as reference product (finasteride, principle active agent of the tablets CHIBRO-PROSCAR: MERCK SHARP & DOHME CHIBRET).
# The radioactive testosterone (labeled with tritium at positions 1, 2, 6 and 7, specific activity 95 Ci/mmol) was provided by AMERSHAM, the nonradiolabeled testosterone was provided by SIGMA.
# The fibroblast culture medium (FCM) consisted of MEM/M199 (3:1, v/v) supplemented with penicillin (50 IU/ml), streptomycin ([…]), sodium bicarbonate (0.2%, w/v) and FCS (10%, v/v).
# The test system consisted of normal human dermal fibroblasts cultured in monolayer. The fibroblasts were isolated from a residue of an abdominoplasty carried out on a person (subject No. i0006). The cells were used at the third passage; they were cultured, until the monolayers reached confluency, in the FCM medium at 37° C. in a humid atmosphere containing 5% CO2.
# The fibroblast incubation medium (FIM) consisted of FCM supplemented with tritiated testosterone (1.6×10^−7 M, i.e. 6.32 μCi/ml) and nonradiolabeled testosterone (3.84×10^−6 M).
# The finasteride was extracted from the tablets by grinding, stirring in DMSO, centrifugation, and then collection of the supernatant (theoretical concentration of this solution: 1 mg/ml of finasteride), which was tested at 30 ng/ml. […]
# The migration solvent was a mixture of dichloromethane and ether (7:3, v/v). At the end of migration, the silica plates were read using a BERTHOLD radioactivity scanner.
# Comparison of the Rf (relative retention factor) values determined for the standards with those obtained for the various radioactive metabolites made it possible to identify these metabolites.
# The metabolization of the testosterone to 5α-dihydro-testosterone under the various experimental conditions was calculated; the results (areas of the 5α-dihydro-testosterone peaks counted by the BERTHOLD scanner) are expressed in pmol of 5α-DHT formed per […]. They have also been expressed as percentage of the 5α-reductase activity present in the “control cells” group. […]
smiles,measurement,setting,value
"CC(C)(C)NC(=O)[C@H]1CC[C@H]2[C@@H]3CC[C@H]4NC(=O)C=C[C@]4(C)[C@H]3CC[C@]12C [Finasteride, finasteride]",pmol of 5α-DHT/μg of DNA (individual cultures),"2 h preincubation, 24 h incubation, triplicate values, control cells 2.68, 1.91, 1.56",0.76 pmol of 5α-DHT/μg of DNA and 0.48 pmol of 5α-DHT/μg of DNA and 0.62 pmol of 5α-DHT/μg of DNA
same,% control (5α-reductase activity),"24 h incubation, control cells = 100",30%
same,"pmol of 5α-DHT/μg of DNA, Mean","24 h incubation, control cells mean 2.05, p<0.05 vs control",0.62** pmol of 5α-DHT/μg of DNA
same,inhibition of the 5α-reductase activity,p<0.05,70%
